Here are results for three compounds from ChEMBL document CHEMBL4813963, “Discovery of pyrazolo-thieno[3,2-d]pyrimidinylamino-phenyl acetamides as type-II pan-tropomyosin receptor kinase (TRK) inhibitors: Design, synthesis, and biological evaluation” (Eur J Med Chem, 2021).

Assay [1] addresses T1, High affinity nerve growth factor receptor (Homo sapiens, UniProt P04629). The experiment in a line: Inhibition of recombinant His-tagged human TRKA (441 to 796 residues) expressed in baculovirus expression system using 5-FAM-EEPLYWSFPAKKK-CONH2 as substrate preincubated for 1 hr followed by substrate addition in presence of ATP by mobility shift assay.
Target sequence in this assay (P04629 whole entry, the tested form may be a part): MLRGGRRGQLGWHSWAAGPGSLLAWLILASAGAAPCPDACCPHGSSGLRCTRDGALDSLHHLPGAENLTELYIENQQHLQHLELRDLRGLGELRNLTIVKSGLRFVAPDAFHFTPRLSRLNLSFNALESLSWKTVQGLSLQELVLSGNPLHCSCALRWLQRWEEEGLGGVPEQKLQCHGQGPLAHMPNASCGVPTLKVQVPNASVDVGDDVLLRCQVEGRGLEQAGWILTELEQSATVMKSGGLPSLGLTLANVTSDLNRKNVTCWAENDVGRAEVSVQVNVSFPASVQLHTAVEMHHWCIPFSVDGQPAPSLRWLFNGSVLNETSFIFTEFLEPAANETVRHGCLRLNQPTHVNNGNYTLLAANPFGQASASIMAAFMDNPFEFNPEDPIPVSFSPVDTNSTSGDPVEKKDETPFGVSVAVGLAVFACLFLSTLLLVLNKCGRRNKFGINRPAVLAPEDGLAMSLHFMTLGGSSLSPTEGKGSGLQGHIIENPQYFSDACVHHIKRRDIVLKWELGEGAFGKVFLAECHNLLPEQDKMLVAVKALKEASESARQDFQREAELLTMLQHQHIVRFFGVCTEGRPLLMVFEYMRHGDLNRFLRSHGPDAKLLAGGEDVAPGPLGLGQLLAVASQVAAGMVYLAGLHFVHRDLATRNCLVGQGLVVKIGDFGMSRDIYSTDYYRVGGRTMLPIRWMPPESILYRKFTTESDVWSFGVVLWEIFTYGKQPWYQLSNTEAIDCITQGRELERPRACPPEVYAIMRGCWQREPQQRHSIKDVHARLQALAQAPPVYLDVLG
In assay [2] the test system is KM12. The experiment in a line: Cytotoxicity against human KM12 cells assessed as reduction in cell viability incubated for 72 hrs by resazurin based assay. It is filed as functional. The conditions noted are these: KM12, 72 h. On the technique in general: Resazurin is reduced to fluorescent resorufin, in cell work by metabolically active cells.
For assay [3], the target named is T1, High affinity nerve growth factor receptor. In words: Inhibition of recombinant His-tagged human TRKA (441 to 796 residues) expressed in baculovirus expression system at 20 uM using 5-FAM-EEPLYWSFPAKKK-CONH2 as substrate preincubated for 1 hr followed by substrate addition in presence of ATP by mobility shift assay relative to control.
Target sequence in this assay (P04629 33-796 limits assumed): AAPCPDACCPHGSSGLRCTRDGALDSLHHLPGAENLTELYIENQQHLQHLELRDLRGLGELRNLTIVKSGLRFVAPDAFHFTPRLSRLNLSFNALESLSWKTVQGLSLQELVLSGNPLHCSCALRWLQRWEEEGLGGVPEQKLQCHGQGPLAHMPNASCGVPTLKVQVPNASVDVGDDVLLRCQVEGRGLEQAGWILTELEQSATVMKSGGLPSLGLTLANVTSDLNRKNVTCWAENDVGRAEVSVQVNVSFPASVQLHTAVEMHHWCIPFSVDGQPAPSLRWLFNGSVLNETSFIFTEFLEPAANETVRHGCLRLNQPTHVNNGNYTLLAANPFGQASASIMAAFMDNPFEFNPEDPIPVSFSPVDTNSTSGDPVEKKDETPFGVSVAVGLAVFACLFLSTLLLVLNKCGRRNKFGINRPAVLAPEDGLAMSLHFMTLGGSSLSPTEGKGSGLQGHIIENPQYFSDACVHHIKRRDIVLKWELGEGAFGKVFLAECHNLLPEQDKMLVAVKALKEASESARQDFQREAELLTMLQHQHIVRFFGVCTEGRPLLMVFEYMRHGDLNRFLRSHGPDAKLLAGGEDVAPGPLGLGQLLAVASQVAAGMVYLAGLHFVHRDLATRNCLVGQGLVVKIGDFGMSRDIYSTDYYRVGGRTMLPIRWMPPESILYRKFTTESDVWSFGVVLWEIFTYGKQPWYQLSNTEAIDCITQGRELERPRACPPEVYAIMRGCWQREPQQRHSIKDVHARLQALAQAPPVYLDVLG

Each structure is given as a SMILES string.

Turning to `CS(=O)(=O)c1ccc(-c2cc3ncnc(Nc4ccc(CC(=O)Nc5ccc(F)c(Cl)c5)cc4)c3s2)cc1`, the IC50 – broadly, the concentration that gives 50% inhibition – in assay [1] turned out to be 200 µM. `O=C(Cc1ccc(Nc2ncnc3ccsc23)cc1)N[C@H]1CCCC[C@@H]1O`: the IC50 was 40.5 µM in assay [1] and over 200 µM in assay [2].

For `Fc1ccc(Nc2ncnc3ccsc23)cc1`, in assay [2], the half-inhibitory concentration (IC50) is 133 µM. Also, the inhibition – broadly, the share of the control response that was lost under treatment – in assay [3] turned out to be 17.4%.
